According to patent publication US6420387B1, “Farnesyl protein transferase inhibiting (imidazol-5-yl) methyl-2-quinolinone derivatives” (Janssen Pharmaceutica N.V., priority 1995, dated 2002):
pIC50: −log10 of the molar value. Structures can show the parent of a compound that is named as a salt.

Key:
[1] = biological target: T1, Human farnesyl protein transferase (Homo sapiens, UniProt P49354+P49356); assay: In vitro assay for inhibition of farnesyl protein transferase (scintillation proximity assay); assay type: biochemical; settings: concentration producing 50% inhibition of enzyme activity; [3H]-farnesylpyrophosphate and biotinylated lamin B peptide substrates, 60 min at 37° C.
T1 construct: grown as monolayer cell cultures were used as a source of human enzyme; endogenous in cells; host or cells: KHOS (Kirsten virus transformed human osteosarcoma) cells, grown as solid tumors in nude mice or as monolayer cultures; 30-50% ammonium sulfate fraction, then Q Fast Flow Sepharose
Method: Human farnesyl protein transferase was prepared essentially as described (Y. Reiss et al., Methods: A Companion to Methods in Enzymology vol 1, 241-245, 1990). Kirsten virus transformed human osteosarcoma (KHOS) cells (American Type Culture Collection, Rockville, Md., USA) grown as solid tumors in nude mice or grown as monolayer cell cultures were used as a source of human enzyme. Briefly, cells or tumors were homogenized in buffer containing 50 mM Tris, 1 mM EDTA, 1 mM EGTA and 0.2 mM phenylmethylsulfonylfluoride (pH 7.5). The homogenates were centrifuged 28,000×g for 60 min and the supernatants collected. A 30-50% ammonium sulfate fraction was prepared, and the resulting precipitate was resuspended in a small (10 to 20 ml) volume of dialysis buffer containing 20 mM Tris 1 mM dithiothreitol and 20 μM ZnCl2. The ammonium sulfate fraction was dialyzed overnight against two changes of the same buffer. The dialyzed material was applied to a 10×1 cm Q Fast Flow Sepharose (Pharmacia LKB Biotechnology Inc., Piscataway, N.J., USA) which had been preequilibrated with 100 ml of dialysis buffer supplemented with 0.05 M NaCl. The column was washed with an additional 50 ml of dialysis buffer plus 0.05 M NaCl followed by a gradient from 0.05 M to 0.25 M NaCl prepared in dialysis buffer. The enzyme activity was eluted with a linear gradient of 0.25 to 1.0 M NaCl prepared in the dialysis buffer. Fractions containing 4 to 5 ml volumes of column eluate were collected and analyzed for farnesyl protein transferase activity. Fractions with enzyme activity were pooled and supplemented with 100 μM ZnCl2. Enzyme samples were stored frozen at −70° C.
The activity of farnesyl protein transferase was measured using the Farnesyl Transferase [^3H] Scintillation Proximity Assay (Amersham International plc., England) under the conditions specified by the manufacturer. To assay for inhibitors of the enzyme, 0.20 μCi of the [^3H]-famesylpyrophosphate substrate and the biotinylated lamin B peptide substrate (biotin-YRASNRSCAIM) were mixed with test compounds in a reaction buffer consisting of 50 mM HEPES, 30 mM MgCl2, 20 mM KCl, 5 mM dithiothreitol, 0.01% Triton X-100. Test compounds were delivered in a 10 μl volume of dimethylsulfoxide (DMSO) to achieve concentrations of 1 and 10 μg/ml in a final volume of 100 μl. The reaction mixture was warmed to 37° C. The enzyme reaction was started by adding 20 μl of diluted human farnesyl protein transferase. Sufficient enzyme preparation was added to produce between 4000 to 15000 cpm of reaction product during the 60 min of reaction incubation at 37° C. Reactions were terminated by the addition of STOP/scintillation proximity bead reagent (Amersham). The reaction product [^3H]-farnesyl-(Cys)-biotin lamin B peptide was captured on the streptavidin linked scintillation proximity bead. The amount of [^3H]-farnesyl-(Cys)-biotin lamin B peptide synthesized in the presence or absence of test compounds was quantified as cpm by counting on a Wallac Model 1480 Microbeta Liquid Scintillation Counter. The cpm of product was considered to be farnesyl protein transferase activity. The protein farnesyl transferase activity observed in the presence of test compound was normalized to farnesyl transferase activity in the presence of 10% DMSO and expressed as per cent inhibition. […] The effects of test compounds in these studies were calculated as IC50 (concentration of test compound producing 50% inhibition of enzyme activity) using the LGICV50 computer program written by the Science Information Division of R. W. Johnson Pharmaceutical Research Institute (Spring House, Pa., USA) on a VAX computer.

[2] = system: NIH 3T3 cells transformed by the T24 activated human H-ras gene; assay: Ras-transformed cell phenotype reversion assay; assay type: cell-based, mouse; settings: cell counts after 72 hours proliferation, corrected for initial input of 200,000 cells
Description: Insertion of activated oncogenes such as the mutant ras gene into mouse NIH 3T3 cells converts the cells to a transformed phenotype. The cells become tumorigenic, display anchorage independent growth in semi-solid medium and lose contact inhibition. Loss of contact inhibition produces cell cultures which no longer form uniform monolayers. Rather, the cells pile up into multicellular nodules and grow to very high saturation densities in plastic tissue culture dishes. Agents such as protein farnesyl transferase inhibitors which revert the ras transformed phenotype restore the uniform monolayer growth pattern to cells in culture. This reversion is easily monitored by counting the number of cells in tissue culture plates. Transformed cells will achieve higher cell numbers than cells which have reverted to an untransformed phenotype. Compounds which revert the transformed phenotype should produce antitumor effects in tumors bearing ras gene mutations.
Compounds are screened in tissue culture in NIH 3T3 cells transformed by the T24 activated human H-ras gene. Cells are seeded at an initial density of 200,000 cells per well (9.6 cm^2 surface area) in six-well cluster tissue culture plates. Test compounds are immediately added to 3.0 ml cell growth medium in a 3.0 μl volume of DMSO, with a final concentration of DMSO in the cell growth medium of 0.1%. The test compounds are run at concentrations of 5, 10, 50, 100, and 500 nM along with a DMSO treated vehicle control. (In case a high activity is observed at 5 nM, the test compound is tested at even lower concentrations.) The cells are allowed to proliferate for 72 hours. Then the cells are detached in 1.0 ml trypsin-EDTA cell dissociation medium and counted on a Coulter particle counter.
Cell numbers expressed as cells per well are measured using a Coulter Particle Counter.
All cell counts were corrected for the initial cell input density by subtracting 200,000.
Control cell counts=[cell counts from cells incubated with DMSO vehicle −200,000].
Test compound cell counts=[cell counts from cells incubated with test compound −200,000]. [formula]
IC50 (i.e. the test compound concentration required to inhibit enzyme activity by 50%) is calculated if sufficient data are available, summarized in table 11.

Structure (SMILES) | pIC50 [1] | pIC50 ([2]; NIH3T3) | pIC50 [2]
COC(c1ccc(Cl)cc1)(c1ccc2c(c1)c(-c1cccc(Cl)c1)cc(=O)n2C)c1cncn1C (racemic) [Compound 4, (±)-4-(3-chlorophenyl)-6-[(4-chlorophenyl)methoxy(1-methyl-1H-imidazol-5-yl)methyl]-1-methyl-2(1H)-quinolinone ethanedioate(1:1).dihydrate] | 7.62 |  | 
Cn1cncc1C(c1ccc(Cl)cc1)c1ccc2c(c1)c(-c1cccc(Cl)c1)cc(=O)n2C (racemic) [Compound 5, (±)-4-(3-chlorophenyl)-6-[(4-chlorophenyl)(1-methyl-1H-imidazol-5-yl)methyl]-1-methyl-2(1H)-quinolinone ethanedioate(1:1).mono-hydrate] | 7.60 | 7.49 | 
COc1cccc(-c2cc(=O)n(C)c3ccc(C(O)(c4ccc(Cl)cc4)c4cncn4C)cc23)c1 (racemic) [Compound 36, (±)-6-[(4-chlorophenyl)hydroxy(1-methyl-1H-imidazol-5-yl)methyl]-4-(3-methoxyphenyl)-1-methyl-2(1H)-quinolinone] | 8.55 |  | 
CNC(c1ccc(Cl)cc1)(c1ccc2c(c1)c(-c1cccc(Cl)c1)cc(=O)n2C)c1cncn1C (racemic) [Compound 61, (±)-4-(3-chlorophenyl)-6-[(4-chlorophenyl)(methylamino)(1-methyl-1H-imidazol-5-yl)methyl]-1-methyl-2(1H)-quinolinone monohydrate] | 8.96 | 6.51 | 
Cn1cncc1C(CCl)(c1ccc(Cl)cc1)c1ccc2c(c1)c(-c1cccc(Cl)c1)cc(=O)n2C (racemic) [Compound 69, (±)-6-[2-chloro-1-(4-chlorophenyl)-1-(1-methyl-1H-imidazol-5-yl)ethyl]-4-(3-chlorophenyl)-1-methyl-2(1H)-quinolinone ethanedioate (1:1)] | 8.47 | 7.85 | 
COCC(=O)NC(c1ccc(Cl)cc1)(c1ccc2c(c1)c(-c1cccc(Cl)c1)cc(=O)n2C)c1cncn1C (racemic) [Compound 89, (±)-N-[(4-chlorophenyl)[4-(3-chlorophenyl)-1,2-dihydro-1-methyl-2-oxo-6-quinolinyl](1-methyl-1H-imidazol-5-yl)methyl]-2-methoxyacetamide monohydrochloride] |  | 7.62 | 
Cn1cncc1C(c1ccc(Cl)cc1)c1ccc2c(c1)c(-c1cccc(Cl)c1)cc(=S)n2C (racemic) [Compound 128, (±)-4-(3-chlorophenyl)-6-[(4-chlorophenyl)(1-methyl-1H-imidazol-5-yl)methyl]-1-methyl-2(1H)-quinolinethione] |  | 6.75 | 
Cn1cncc1C(N)(c1ccc(Cl)cc1)c1ccc2c(c1)c(-c1cccc(Cl)c1)c(Cl)c(=O)n2C (racemic) [Compound 143, (±)-6-[amino(4-chlorophenyl)(1-methyl-1H-imidazol-5-yl)methyl]-3-chloro-4-(3-chlorophenyl)-1-methyl-2(1H)-quinolinone] |  | 7.09 | 
Cn1cncc1C(O)(c1ccc(Cl)cc1)c1ccc2c(c1)c(-c1ccccc1)cc(=O)n2C (centres unmarked) [Compound 1] | 8.22 |  | 
Cn1cncc1C(c1ccc(Cl)cc1)c1ccc2[nH]c(=O)cc(-c3cccc(Cl)c3)c2c1 (centres unmarked) [Compound 7] | 8.80 |  | 
Cn1cncc1C(OCCCO)(c1ccc(Cl)cc1)c1ccc2c(c1)c(-c1cccc(Cl)c1)cc(=O)n2C (centres unmarked) [Compound 15] | 7.74 |  | 
Cn1cncc1C(O)(c1ccc(Cl)cc1)c1ccc2c(c1)c(-c1cccc(Cl)c1)cc(=O)n2C (centres unmarked) [Compound 23, (A)-4-(3-chlorophenyl)-6-[(4-chlorophenyl)-hydroxy(1-methyl-1H-imidazol-5-yl)methyl]-1-methyl-2(1H)-quinolinone ethanedioate (1:1)] |  |  | 6.40
Cn1cncc1C(O)(c1ccc(Cl)cc1)c1ccc2c(c1)c(-c1cccc(Cl)c1)cc(=O)n2C (centres unmarked) [Compound 24, (B)-4-(3-chlorophenyl)-6-[(4-chlorophenyl)hydroxy(1-methyl-1H-imidazol-5-yl)methyl]-1-methyl-2(1H)-quinolinone ethanedioate(1:1)] | 8.57 | 7.80 | 
CCOCCCOC(c1ccc(Cl)cc1)(c1ccc2c(c1)c(-c1cccc(Cl)c1)cc(=O)n2C)c1cncn1C (centres unmarked) [Compound 29] | 7.24 | 6.46 | 
CCCOc1cccc(-c2cc(=O)n(C)c3ccc(C(O)(c4ccc(Cl)cc4)c4cncn4C)cc23)c1 (centres unmarked) [Compound 37] | 8.00 |  | 
Cn1c(=O)cc(-c2ccccc2)c2cc(C(c3ccc(Cl)cc3)c3c[nH]cn3)ccc21 (centres unmarked) [Compound 42] | 6.04 |  | 
Cn1c(=O)cc(-c2cccc(Cl)c2)c2cc(C(c3ccc(Cl)cc3)c3c[nH]cn3)ccc21 (centres unmarked) [Compound 45] | 6.00 |  | 
CCCOc1cccc(-c2cc(=O)n(C)c3ccc(C(c4ccc(Cl)cc4)c4cncn4C)cc23)c1 (centres unmarked) [Compound 52] | 8.24 |  | 
CCOC(=O)CC(c1ccc(Cl)cc1)(c1ccc2c(c1)c(-c1cccc(Cl)c1)cc(=O)n2C)c1cncn1C (centres unmarked) [Compound 58] | 8.55 | 7.02 | 
Cn1cncc1C(c1ccc(Cl)cc1)(c1ccc2c(c1)c(-c1cccc(Cl)c1)cc(=O)n2C)n1ccnc1 (centres unmarked) [Compound 60] | 9.21 | 7.15 | 
Cn1cncc1C(O)(c1ccc(Cl)cc1)c1ccc2c(c1)c(-c1cccc(OCCO)c1)cc(=O)n2C (centres unmarked) [Compound 63] | 9.00 | 7.28 | 
Cn1cncc1C(O)(c1ccc(Cl)cc1)c1ccc2c(c1)c(-c1cccc(O)c1)cc(=O)n2C (centres unmarked) [Compound 64] | 7.94 |  | 
CN(C)C(c1ccc(Cl)cc1)(c1ccc2c(c1)c(-c1cccc(Cl)c1)cc(=O)n2C)c1cncn1C (centres unmarked) [Compound 66] | 8.40 | 7.72 | 
COCCNC(c1ccc(Cl)cc1)(c1ccc2c(c1)c(-c1cccc(Cl)c1)cc(=O)n2C)c1cncn1C (centres unmarked) [Compound 67] | 8.23 | 7.29 | 
Cn1cncc1C(CO)(c1ccc(Cl)cc1)c1ccc2c(c1)c(-c1cccc(Cl)c1)cc(=O)n2C (centres unmarked) [Compound 71] | 7.59 | 6.54 | 
CCc1cccc(-c2cc(=O)n(C)c3ccc(C(O)(c4ccc(Cl)cc4)c4cncn4C)cc23)c1 (centres unmarked) [Compound 97] | 8.54 |  | 
CCCc1cccc(-c2cc(=O)n(C)c3ccc(C(O)(c4ccc(Cl)cc4)c4cncn4C)cc23)c1 (centres unmarked) [Compound 99] | 8.77 |  | 
